# Measured values as given in the NIST ThermoML archive (doi:10.1016/j.jct.2006.12.003).
# ± gives the expanded uncertainty stated by the source.
# Assays:
# [1] = 293.15 K; 101.33 kPa; Liquid
# [2] = refractive index (Na D-line) (dimensionless); conditions: 293.15 K; 101.33 kPa; Liquid; Standard Abbe refractometry
mass density [1],refractive index [2],SMILES
1251 ± 1 kg/m3,1.4445 ± 0.0007,"ClCCCl [1,2-dichloroethane]"
1049.4 ± 0.3 kg/m3,1.3713 ± 0.0007,CC(=O)O [acetic acid]

SMILES,mass density [1],refractive index [2]
Cc1ccccc1 [toluene],862.2 ± 0.5 kg/m3,1.4953 ± 0.0007
